Assay results: patent EP2653477B1, “SCORPION ACTIVE PEPTIDES AND PREPARATION METHODS AND APPLICATIONS THEREOF” (Wuhan More Biotechnology Co., Ltd., priority 2010, dated 2012)
Bridge positions count the residues as written; N and C are the ends. Peptide text beside a SMILES is read from it.

What was measured:
potassium channel Kv1.3 = target: T1, potassium channel Kv1.3 (Homo sapiens, UniProt P22001); experiment: whole-cell patch clamp, inhibition of Kv1.3 current in transfected COS-7 cells; assay type: cell-based; settings: potassium channel Kv1.3 in COS-7 cells, read-out: polypeptide concentrations that inhibit the current by half (IC50 value)
T1 construct: expressed in transfected cells; host or cells: COS-7 cells, selected with 0.8 mg/mL geneticin
Method: COS-7 cells were cultured in a DMEM medium containing 10% fetal calf serum, at 37° C, 5% CO2. The recombinant plasmids of potassium channel Kv1.3 were transfected by using a Sofast™ transfection kit, and the transfected cells were selectively cultured in a medium containing 0.8 mg/mL geneticin. The pharmacological activities of scorpion active polypeptides ADMR-011, ADMR-016, ADMR-019, ADMR-023 and ADMR-028 were tested and analyzed by using an instrument of whole-cell patch clamp (EPC-10 dual-channel patch clamp amplifier HEKA, Elektronik, Lambrecht, Germany). The setting of the experimental parameters, the collecting of data, and the applying of stimulus were all controlled by Pulse software (Elektronik, Lambrecht, Germany). The filter of the instrument was set to be 10 kHz (Bessel), and the electrode impedance was 2∼5 MΩ. After the formation of giga-seal (1∼5 GΩ) between the electrode and cell membrane, an automatic c-fast was performed, and the membrane was broken by slightly applying negative pressure, then an automatic c-slow was performed. At a holding potential of -70 mV, depolarizing pulses, incrementing in 10 mV steps, with a step width of 80 ms , were given to stimulate from -60 mV to +50 mV, and the condition of current was observed. The polypeptides ADMR-011, ADMR-016 and ADMR-019 were accurately perfused, which was achieved by MPS-2 (INBIO Inc, Wuhan, China) perfusing system. After dissolving the three scorpion active polypeptides, they were applied by spraying via DAD Drug Application System (ALA), and the tip of the tube for drug application was about 100 µm away from the cell being recorded.
It can be known from Figure 16 to Figure 20 that, the pharmacological activity of ADMR-011 on potassium channel Kvl.3 was 91 pM, the pharmacological activity of ADMR-016 on potassium channel Kvl.3 was 2.58 nM, the pharmacological activity of ADMR-019 on potassium channel Kv1.3 was 1.41 nM, and the pharmacological activity of ADMR-023 and ADMR-028 on potassium channel Kvl.3 were 0.49 nM and 0.65 nM, respectively. Therefore, they are polypeptides with potent activity that are currently found internationally.

Wistar rat EAE model = experiment: EAE (multiple sclerosis) model in Wistar rats induced by GPSCH-CFA, clinical scoring; assay type: in vivo; settings: 100 µg·kg^-1 subcutaneously once every day, x±s, n=10, score 0-5
Text: Experimental animals: female inbred line Wistar rats (6∼8 week old, body weigh 150±10 g) and guinea pigs (300∼400 g, purchased from Wuhan University Laboratory Animal Center) were selected.
Formulating a mixed emulsion of whole spinal cord homogenate - Freund's complete adjuvant (GPSCH-CFA): a guinea pig was executed, and the spinal cord was rapidly removed, and prepared into 50% PBS homogenate by a ultrasonic disruptor (Sonics & Materials Inc, America), which was mixed with equal amount of Freund's complete adjuvant (BCG vaccine 10 mg/ml), and was pushed back and forth with syringes until forming a water-in-oil emulsion.
Wistar rat EAE model induced by EAE: GPSCH-CFA emulsion was injected intradermally into the foot pads of both the hind legs of Wistar rats, or simultaneously injected intradermally about 1×10^10 pertussis vaccine. The rats were weighed every day, and observed for their neurological symptoms. Experimental autoimmune encephalomyelitis appeared after the rats had been raised for 2 weeks.
The rats with experimental autoimmune encephalomyelitis (EAE) were divided into […] groups randomly: normal control group (negative control group), model control group (model rats + normal saline), administration group A (model rats + ADMR-011 polypeptide), administration group B (model rats + ADMR-016 polypeptide), administration group C (model rats + ADMR-019 polypeptide), administration group D (model rats + ADMR-023 polypeptide), and administration group E (model rats + ADMR-028 polypeptide), 10 rats for each group. For the administration groups, polypeptides ADMR-011, ADMR-016, ADMR-019, ADMR-023 and ADMR-028 were injected subcutaneously respectively at a dose of 100 µg·kg^-1, once every day in the morning. For the normal control group and the model control group, equivalent amount of normal saline was injected subcutaneously, and administered continuously. […] The highest clinical score for each animal was recorded, and the average value of them was taken to be the average clinical score.
The scoring criteria were: without any clinical symptom, 0 point; disappearance of tension in the tail, and observable mild awkward gait, 1 point; weakness in both the hind limbs, which can recover after passive body flipping, 2 points; paralysis in both the hind limbs, which can not recover after passive body flipping, 3 points; tetraplegia accompanied by incontinence of urine and feces, 4 points; moribund state or death, 5 points. Table 1. Scores for rats of various experimental groups in the EAE model (-x±s)

rheumatoid arthritis = experiment: pristane-induced rheumatoid arthritis in SD rats, joint score and hind foot plantar swelling; assay type: in vivo; design: key to Score of joint: clinical score 1-4: 1 joint red/swollen=1 ... severe whole-limb arthritis=4; settings: x±s, n=10; for Score of joint: arthritis rats, polypeptides 100 µg·kg^-1 (methotrexate 1.75 µg·kg^-1) subcutaneously once every day, score 1-4; for The swelling degree after the inflammation: volume difference of hind foot before and after the modeling
Method: […] Female (♀) specific pathogen free (SPF) inbred line SD rats (Wuhan University Laboratory Animal Center), body weight 150±10 g, were selected, and pristane was injected intradermally at the base of the tail of rats in experimental groups at a dose of 0.2 ml/rat, after they were acclimatized in a clean-grade environment for 1 week. Rheumatoid arthritis appeared after the rats were raised for only 2 weeks.
The rats having arthritis were randomized into: normal control group (negative control group), model negative control group (model rat + normal saline), model positive control group (model rat + methotrexate), administration group A (model rat + ADMR-011 polypeptide), administration group B (model rat + ADMR-016 polypeptide), administration group C (model rat + ADMR-019 polypeptide), administration group D (model rat + ADMR-023 polypeptide), and administration group E (model rat + ADMR-028 polypeptide), 10 rats for each group. The administration groups were injected subcutaneously at a dose of 100 µg·kg^-1, once every day in the morning, and administered continuously; the normal control group and the model negative control group were injected subcutaneously with equivalent amount of normal saline; and the model positive control group were injected subcutaneously with methotrexate (MTX) at a dose of 1.75 µg·kg^-1, once every day, and administered continuously.
The highest clinical score for each animal was recorded, and the average value of them was taken to be the average clinical score. The scoring criteria were: one joint of a rat was red and swollen, 1 point; two joints of a rat were red and swollen, 2 points; all the joints of a rat were red and swollen, 3 points; severe arthritis in the entire limb of a rat, 4 points. Table 2. Arthritis scores for rats of various experimental groups (-x±s)
From day 8 of the experiment, the hind foot plantar volume of the rat was measured and recorded every other day for 21 consecutive days, and the swelling degree (mL) was calculated according to the volume difference before and after the modeling. Table 3. The swelling degree of rats in various experimental groups (-x±s)

Kunming mice = experiment: toxicity study in mice, single intraperitoneal injection, 7 days observation; assay type: in vivo; settings: 10 mg/kg intraperitoneally once (100 times the dose for animal model), observed 7 days
Method: 18∼20 g Kunming mice were selected, and divided into 4 groups, 8 male mice and 8 female mice for each group. The lyophilized powders of scorpion active polypeptides ADMR-011, ADMR-016, ADMR-019, ADMR-023 and ADMR-028 were dissolved with normal saline respectively, and the 3 groups of mice were injected intraperitoneally once respectively with polypeptide solution at a dose of 10 mg/kg (100 times of the dose for animal model), and the fourth group were injected with equivalent amount of normal saline as control.
After the administration, the respiration, motor and heartbeat in animals of all the groups were all normal, without significant abnormal reaction. 7 days after the administration, all the animals were conducted gross anatomy to observe the volume, color and texture of the main organs (heart, liver, spleen, lung, and kidney), and there was no macroscopic lesion. There were no significant difference between the 3 administration groups and the normal saline group.

T1 sequence (P22001 whole entry): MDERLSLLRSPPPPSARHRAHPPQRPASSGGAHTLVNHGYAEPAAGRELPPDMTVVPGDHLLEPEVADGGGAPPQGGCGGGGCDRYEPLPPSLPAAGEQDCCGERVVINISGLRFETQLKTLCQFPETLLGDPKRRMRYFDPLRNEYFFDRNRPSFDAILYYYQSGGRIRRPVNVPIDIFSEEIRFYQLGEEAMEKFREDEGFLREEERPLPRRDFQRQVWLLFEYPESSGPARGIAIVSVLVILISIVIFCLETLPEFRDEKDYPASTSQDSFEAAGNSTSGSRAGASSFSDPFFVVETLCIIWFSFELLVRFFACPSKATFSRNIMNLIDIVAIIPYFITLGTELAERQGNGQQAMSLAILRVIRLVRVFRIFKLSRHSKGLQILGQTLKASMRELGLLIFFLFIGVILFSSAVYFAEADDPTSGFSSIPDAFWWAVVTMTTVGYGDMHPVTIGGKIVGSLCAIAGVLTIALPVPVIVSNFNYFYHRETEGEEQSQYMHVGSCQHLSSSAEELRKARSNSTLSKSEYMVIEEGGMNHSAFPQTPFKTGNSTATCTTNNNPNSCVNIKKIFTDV

Structure (SMILES)	IC50 (potassium channel Kv1.3)	Average clinical scores (Wistar rat EAE model; 8 d)	Average clinical scores (Wistar rat EAE model; 10 d)	Average clinical scores (Wistar rat EAE model; 12 d)	Average clinical scores (Wistar rat EAE model; 14 d)	Score of joint (rheumatoid arthritis; 10 d)	Score of joint (rheumatoid arthritis; 15 d)	Score of joint (rheumatoid arthritis; 21 d)	The swelling degree after the inflammation (rheumatoid arthritis; d8)	The swelling degree after the inflammation (rheumatoid arthritis; d15)	The swelling degree after the inflammation (rheumatoid arthritis; d22)	The swelling degree after the inflammation (rheumatoid arthritis; d28)	toxicity in mice (Kunming mice)
CC[C@H](C)[C@@H]1NC(=O)CNC(=O)[C@H](CCC(=O)O)NC(=O)[C@@H]2CSSC[C@@H](C(=O)N[C@@H](Cc3ccc(O)cc3)C(=O)N[C@@H](CCCNC(=N)N)C(=O)O)NC(=O)[C@H](C(C)C)NC(=O)[C@@H]3CSSC[C@H](NC(=O)[C@H](CCC(=O)O)NC(=O)[C@H](CO)NC(=O)[C@H](CO)NC(=O)CNC(=O)[C@H](CC(N)=O)NC(=O)[C@@H](NC(=O)[C@H](CCC(=O)O)NC(=O)[C@H](CCCCN)NC(=O)[C@H](CO)NC(=O)[C@@H](NC(=O)[C@H](Cc4ccc(O)cc4)NC(=O)[C@@H](NC(=O)[C@@H](N)CCC(N)=O)[C@@H](C)CC)[C@@H](C)O)CSSC[C@H](NC(=O)[C@H](CCCCN)NC(=O)CNC(=O)[C@H](CO)NC(=O)[C@H](CCCNC(=N)N)NC(=O)[C@H](CCCCN)NC(=O)CNC(=O)[C@H]([C@@H](C)O)NC1=O)C(=O)N[C@@H]([C@@H](C)CC)C(=O)N[C@@H](CC(N)=O)C(=O)N[C@@H](CCCCN)C(=O)N[C@@H](CCCCN)C(=O)N3)C(=O)N[C@@H](Cc1ccc(O)cc1)C(=O)N[C@@H](CO)C(=O)N[C@@H](Cc1c[nH]cn1)C(=O)N2 [ADMR-011] (H-QIYTSKECNGSSECYSHCEGITGKRSGKCINKKCVCYR-OH; disulfide 8-29, 14-34, 18-36 (inferred); N-terminus and C-terminus assumed)	0.091 nM	0.47±0.18	0.75±0.21	0.83±0.35	0.95±0.37	1.63±0.57	2.07±0.65	1.62±0.59	0.041 ± 0.012 mL	0.21 ± 0.06 mL	0.29 ± 0.09 mL	0.24 ± 0.13 mL	no significant toxicity
CC[C@H](C)[C@H](NC(=O)CNC(=O)[C@@H](N)C(C)C)C(=O)N[C@@H](CC(N)=O)C(=O)N[C@H](C(=O)N[C@@H](CCC(N)=O)C(=O)N[C@H]1CSSC[C@@H]2NC(=O)[C@H](CCC(N)=O)NC(=O)CNC(=O)[C@H](Cc3ccccc3)NC(=O)[C@H](CCCNC(=N)N)NC(=O)[C@H](CCSC)NC(=O)CNC(=O)[C@H](C)NC(=O)[C@H](CC(=O)O)NC(=O)[C@H](CCCCN)NC(=O)[C@@H]3CSSC[C@@H](C(=O)N[C@H](C(=O)N4CCC[C@H]4C(=O)N[C@@H](CCCCN)C(=O)O)[C@@H](C)O)NC(=O)[C@H](CC(=O)O)NC(=O)[C@H](CSSC[C@H](NC(=O)[C@H](CCC(N)=O)NC(=O)CNC(=O)[C@H](CO)NC(=O)[C@H]([C@@H](C)O)NC(=O)[C@H](CC(N)=O)NC1=O)C(=O)N[C@@H](CC(C)C)C(=O)N[C@@H](CCCCN)C(=O)N1CCC[C@H]1C(=O)N3)NC(=O)[C@H](CCCCN)NC(=O)CNC(=O)[C@H](CC(N)=O)NC(=O)[C@H]([C@@H](C)CC)NC2=O)C(C)C [ADMR-016] (H-VGINVQCNTSGQCLKPCKDAGMRFGQCINGKCDCTPK-OH; disulfide 7-27, 13-32, 17-34 (inferred); N-terminus and C-terminus assumed)	2.58 nM	0.50±0.23	0.87±0.34	1.31±0.42	1.21±0.49	1.84±0.71	2.24±0.53	1.96±0.62	0.037 ± 0.012 mL	0.25 ± 0.07 mL	0.37 ± 0.08 mL	0.33 ± 0.12 mL	no significant toxicity
